Results from patent publication US20230416679A1, “METHODS AND COMPOSITIONS FOR IN-VITRO AUGMENTATION OF MILK PRODUCTION FROM MAMMARY EPITHELIAL CELLS” (Wilk Technologies International Ltd., priority 2021, published 2023).
“Also recorded” adds a separate entry of the source.

Columns and labels:
Type in all cases: cell-based
[1] = tested on: primary culture of bovine mammary epithelial cells; assay: Triglyceride / fat secreted to the medium by mammary epithelial cells (Nile red staining, HPLC-ELSD)
Text: For all the experiments, primary culture of bovine mammary epithelial cells were used. The cells were isolated from 3 lactating Holstein cows according to an established protocol (Cohen et al., 2015 supra). Study protocols were in compliance with the regulations of the Israeli Ministry of Health, under the supervision of the Department for Control of Animal Products, State of Israel Ministry of Agriculture Rural Development Veterinary Services and Animal Health. Certificate Nu: #80. After isolation, 60,000 cells were plated in a 35-mm plastic dish on glass cover slips for all florescence staining experiments. For production analysis, 150,000 cells were plated in a 60-mm plastic dish for lipids, protein, and lactose extraction. […] After 24 h of incubation, medium was collected for triglyceride and phospholipid quantification, and cells were harvested for cell counting, lipid, lactose or protein extraction. […]
After treatment, total lipids were extracted from harvested cells and from collected medium. […] Quantification was performed against external standard curves and expressed as μg/per 10^6 live cells or as weight % out of the sum of phospholipids (μg) in the sample. Live cell number was determined with a hemocytometer after 5 min of trypan blue staining. […]

[2] = tested on: primary culture of bovine mammary epithelial cells; assay: Milk protein (casein, whey) secretion to the medium (HPLC-UV)
Text: For all the experiments, primary culture of bovine mammary epithelial cells were used. The cells were isolated from 3 lactating Holstein cows according to an established protocol (Cohen et al., 2015 supra). Study protocols were in compliance with the regulations of the Israeli Ministry of Health, under the supervision of the Department for Control of Animal Products, State of Israel Ministry of Agriculture Rural Development Veterinary Services and Animal Health. Certificate Nu: #80. After isolation, 60,000 cells were plated in a 35-mm plastic dish on glass cover slips for all florescence staining experiments. For production analysis, 150,000 cells were plated in a 60-mm plastic dish for lipids, protein, and lactose extraction. Oxygen consumption assay was performed by using Seahorse system (Agilent, USA); cells were plated in 24-well plate (20,000 cells/well) and incubated with DMEM/F12, with 0.15% (v/v) bovine serum albumin and insulin (1 μg/ml), hydrocortisone (0.5 μg/ml) and prolactin (1 μg/ml) for 48 h to induce lactogenic response. Then cells were treated with three different P. lentiscus extracts: ethyl acetate, hexane and chloroform, according to the protocol that was used before (Azaizeh et al., 2013). The extracts were diluted with DMEM/F12 medium supplemented with Dimethyl Sulfoxide (DMSO) in a final concentration of 0.1% for better dissolution of the extractions. Oleic acid was added to the treatment medium at a final concentration of […] to increase fat (triglycerol) synthesis to better enable the visualization of intracellular lipid droplets. The treatment was given in the presence of insulin (1 μg/ml), hydrocortisone (0.5 μg/ml) and prolactin (1 μg/ml). After 24 h of incubation, medium was collected for triglyceride and phospholipid quantification, and cells were harvested for cell counting, lipid, lactose or protein extraction. Otherwise, cells were fixed for florescence staining or plates taken to seahorse for oxygen consumption rate measurement. After treatment, 0.5 ml cultured medium was collected to HPLC equipped with UV detector. Protein content was determined in 220 nm wavelength by C-18 reverse phase column. Identification and quantification were determined by constructing a calibration curve of external standard of known protein concentrations which dissolved in a 50 mM phosphate buffer (PH=6.7). Identification for α casein, β casein and α lactalbumin were qualified as caseins (α and β casein) and whey (a lactalbumin) protein. Positive values indicate increased protein content whereas negative values indicate decreased protein content.

[3] = tested on: primary culture of bovine mammary epithelial cells; assay: Intracellular triglyceride content in cell lysates (lipid extraction, HPLC-ELSD); conditions: for intracellular triglyceride content: 24 h of treatment (FIG. 7)
Text: For all the experiments, primary culture of bovine mammary epithelial cells were used. The cells were isolated from 3 lactating Holstein cows according to an established protocol (Cohen et al., 2015 supra). Study protocols were in compliance with the regulations of the Israeli Ministry of Health, under the supervision of the Department for Control of Animal Products, State of Israel Ministry of Agriculture Rural Development Veterinary Services and Animal Health. Certificate Nu: #80. After isolation, 60,000 cells were plated in a 35-mm plastic dish on glass cover slips for all florescence staining experiments. For production analysis, 150,000 cells were plated in a 60-mm plastic dish for lipids, protein, and lactose extraction. Oxygen consumption assay was performed by using Seahorse system (Agilent, USA); cells were plated in 24-well plate (20,000 cells/well) and incubated with DMEM/F12, with 0.15% (v/v) bovine serum albumin and insulin (1 μg/ml), hydrocortisone (0.5 μg/ml) and prolactin (1 μg/ml) for 48 h to induce lactogenic response. Then cells were treated with three different P. lentiscus extracts: ethyl acetate, hexane and chloroform, according to the protocol that was used before (Azaizeh et al., 2013). The extracts were diluted with DMEM/F12 medium supplemented with Dimethyl Sulfoxide (DMSO) in a final concentration of 0.1% for better dissolution of the extractions. […] The treatment was given in the presence of insulin (1 μg/ml), hydrocortisone (0.5 μg/ml) and prolactin (1 μg/ml). […] Otherwise, cells were fixed for florescence staining or plates taken to seahorse for oxygen consumption rate measurement.
After treatment, total lipids were extracted from harvested cells and from collected medium. The medium or the cells were diluted by 20 times Folch reagent (Chloroform-Methanol 2:1). After overnight incubation with cold extraction at 4° C., the upper phase was removed, and the lower phase was filtered through glass wool. Samples were then evaporated under a nitrogen stream at 65° C., diluted in 100 μl chloroform:methanol (97:3, v/v) and stored at −20° C. until injection for HPLC analysis. […] Quantification was performed against external standard curves and expressed as μg/per 10^6 live cells or as weight % out of the sum of phospholipids (μg) in the sample. Live cell number was determined with a hemocytometer after 5 min of trypan blue staining. […]
Cells were incubated with 360 uM oleic acid (O) with or without 1.2 mM beta hydroxybutyrate (BHBA, H). The concentration of triglyceride was measured in cell lysates.

[4] = tested on: primary culture of bovine mammary epithelial cells; assay: Milk lactose secretion to the medium (HPLC, refractive index detector)
Text: For all the experiments, primary culture of bovine mammary epithelial cells were used. The cells were isolated from 3 lactating Holstein cows according to an established protocol (Cohen et al., 2015 supra). Study protocols were in compliance with the regulations of the Israeli Ministry of Health, under the supervision of the Department for Control of Animal Products, State of Israel Ministry of Agriculture Rural Development Veterinary Services and Animal Health. Certificate Nu: #80. After isolation, 60,000 cells were plated in a 35-mm plastic dish on glass cover slips for all florescence staining experiments. For production analysis, 150,000 cells were plated in a 60-mm plastic dish for lipids, protein, and lactose extraction. […] After 24 h of incubation, medium was collected for triglyceride and phospholipid quantification, and cells were harvested for cell counting, lipid, lactose or protein extraction. […] After treatment, 0.5 ml medium was collected to be analyzed using HPLC equipped with a refractive index detector at 68° C. […] Identification and quantification were determined by establishing a calibration curve of external standard of a known lactose concentration dissolved in water. […]

[5] = tested on: primary culture of bovine mammary epithelial cells; assay: Intracellular lipid droplets fluorescence staining (Nile red / DAPI)
Text: For all the experiments, primary culture of bovine mammary epithelial cells were used. The cells were isolated from 3 lactating Holstein cows according to an established protocol (Cohen et al., 2015 supra). Study protocols were in compliance with the regulations of the Israeli Ministry of Health, under the supervision of the Department for Control of Animal Products, State of Israel Ministry of Agriculture Rural Development Veterinary Services and Animal Health. Certificate Nu: #80. After isolation, 60,000 cells were plated in a 35-mm plastic dish on glass cover slips for all florescence staining experiments. […] After 24 h of incubation, medium was collected for triglyceride and phospholipid quantification, and cells were harvested for cell counting, lipid, lactose or protein extraction. […] Cover slips were then rinsed four times with PBS and mounted with fluorescence mounting medium (Dako, North America Inc., Carpinteria, CA). Slides were visualized with an Olympus BX40 fluorescence microscope equipped with an Olympus DP73 digital camera using CellSens Entry software (version 1.7, Olympus). Lipid droplet diameter was measured using ImageJ software (version 1.48, NIH, Bethesda, MD). […] The effect of oleic acid on accumulation of fat in primary culture of mammary epithelial cells was determined using Nile red staining (red). […]

Structure (SMILES): O=c1c(O)c(-c2cc(O)c(O)c(O)c2)oc2cc(O)cc(O)c12 [myricetin, Myricetin]
- triglyceride secretion [1]: can increase
- casein secretion, higher than control ([2]; 1 ppm, P<0.05, FIG. 7C): 126%
- whey secretion, higher than control ([2]; 1 ppm, P=0.05, FIG. 7D): 124%
- increase of casein and whey secretion compared with control ([2]; between about 0.5 ppm and about 2.5 ppm, for example 1 ppm): 30%
- intracellular triglyceride content [3]: did not affect
- lactose secretion [4]: can increase

Structure (SMILES): CC(O)CC(=O)O (stereo not drawn) [BHBA, β-hydroxybutirate]
- triglyceride content in the cells ([3]; 1.2 mM BHBA added to 360 uM oleic acid, 48 hours, cell lysates): ~90 ug/10^6 cells

Structure (SMILES): CCCCCCCC/C=C\CCCCCCCC(=O)O [oleic acid]
- fat content (triglyceride) in medium collected from cells compared with control ([1]; 100 uM oleic acid in the presence of BSA, 24 h, Nile red): higher; also recorded: increases
- oleic acid concentration at which toxic effect is evident ([5]; primary MEC, Nile red / Dapi staining (FIG. 2)): over 1 mM
- increase of triglyceride content in the cells ([3]; 360 uM oleic acid, 48 hours, cell lysates): 4 fold

Structure (SMILES): O=C(O)c1cc(O)c(O)c(O)c1 [gallic acid]
- protein secretion compared to control ([2]; 2 ppm, P=0.98): did not change
- size of the intracellular lipid droplets ([5]; gallic acid added to MEC primary culture (FIG. 6)): increased
- intracellular triglyceride content [3]: did not affect
- lactose secretion [4]: increases
